Values of other authors as cited in paper PMC3262105 (Journal of the American Chemical Society, 2012).
pIC50: −log10 of the molar value.

Tests used:
cervical cells [1] = conditions: concentration 10 times the IC50 for efficacy
[2] = test system: SEVI- and semen-mediated enhancement of HIV infection in T cells
cervical cells [3] = conditions: concentration 10 times the IC50 for efficacy; remark: listed apart in the source

Question: For `Cc1ccc2nc(-c3ccc(NCCOCCOCCOCCOCCOCCO)cc3)sc2c1` [BTA-EG6], which “toxicity to cervical cells” value (cervical cells [1]) is on record?
Answer: not toxic

Question: What about the “concentration required to nearly completely neutralize the effects of SEVI on HIV-1 infection” value [2] of the same compound?
Answer: 44 µM

Question: What about the pIC50 ([2]; read-out: IC50 for reducing SEVI-enhanced infection of HIV, T cells) of the same compound?
Answer: 4.89

Question: What about the pro-inflammatory activity (cervical cells [3]) of the same compound?
Answer: did not exhibit any pro-inflammatory activity
